Each structure is given as a SMILES string.

The series in a line: gradient 5% acetonitrile 3 min, to 50% in 2 min, to 85% in 15 min, held 3 min, 100 µL/min. The conditions noted are these: column: Zorbax Extend-C18 2.1 x 50 mm; eluents: water / acetonitrile, 0.1% formic acid. The method, boiled down: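 Pure standards were run in mixtures of ~100 molecules by HPLC coupled to a quadrupole time-of-flight mass spectrometer. The column was a Zorbax Extend-C18 (2.1 × 50 mm, 1.8 μm) at 100 μL/min, with water and acetonitrile each containing 0.1% formic acid, in positive and negative ionization mode. Dead and dwell volumes were 40 μL and 900 μL. Retention time was taken from computationally picked adduct peaks, each manually inspected, with data collected over 3 months.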
`Cc1cc(C(=O)NCc2ccc(F)cc2)nc2cc(-c3cccs3)nn12` had an RP-LC retention time of 1090 s.

As for `CC(C)C(=O)Nc1ccc2c(c1)N(C(=O)c1cccs1)CCC2`, the RP-LC retention time worked out at 819 s.

As to `COc1ccc2c(c1)C1(CCN(S(=O)(=O)c3cccc(F)c3)C1)C(=O)N2` (stereo not given), the RP-LC retention time was found to be 835 s.

The compound `O=C(CCCSc1ccc(NC(=O)c2ccc(F)cc2)nn1)Nc1nccs1` displayed an RP-LC retention time of 745 s.

As for `CCC(C)(C)NS(=O)(=O)c1cc(-c2nc(C)cs2)n(C)c1C`, the RP-LC retention time is 1010 s.

Regarding `CC(C)C(=O)N1CCc2c([nH]c3ccccc23)C12C(=O)N(C)c1ccc(Br)cc12` (stereo not given), the RP-LC retention time was found to be 976 s.

Compound `Cc1nc(-c2cc(S(=O)(=O)N3CCC(C(=O)Nc4cccc(C#N)c4)CC3)c(C)s2)no1` had an RP-LC retention time of 949 s.

In turn, `CCN1CCN(c2c(S(=O)(=O)c3ccccc3)cnc3cc(OC)c(OC)cc23)CC1` showed an RP-LC retention time of 623 s.

For `O=C(NCC1CCN(C(=O)COc2ccccc2)CC1)Nc1cccc(C(F)(F)F)c1`, the RP-LC retention time amounted to 840 s.

In turn, `Cc1ccc(-c2nocc2CCC(=O)NCc2ccc(F)cc2)cc1` came in with an RP-LC retention time of 919 s.

Compound `O=C(Nc1cc(-c2ccccc2)nn1CCO)c1ccsc1` gave an RP-LC retention time of 726 s.

In turn, `O=C(NC1CCCCC1)C1CCCN(c2ncc(-c3ccccc3)cn2)C1` (stereo not given) registered an RP-LC retention time of 1070 s.

For `OC1(c2ccccn2)CCOC2(CCN(Cc3cccc(Cl)c3)CC2)C1` (stereo not given), the RP-LC retention time turned out to be 584 s.

With `Cc1cc2nc(C(F)(F)F)c(=O)n(C(C)C(=O)NCCCOC(C)C)c2cc1C` (stereo not given), the RP-LC retention time was determined as 1140 s.

Regarding `O=S(=O)(c1cccs1)N1CCN(c2nc3c(F)cc(F)cc3s2)CC1`, the RP-LC retention time was 997 s.

`CN(CCc1noc(COc2ccccc2)n1)C(=O)Nc1ccccc1C(F)(F)F` showed an RP-LC retention time of 953 s.

For `Cc1cccc(-c2nnc(-c3cccc(S(=O)(=O)N4CCCCC4)c3)o2)c1`, the RP-LC retention time stood at 1140 s.

In turn, `CCOCCCNCc1ccc(-c2cccc(Cl)c2)o1` yielded an RP-LC retention time of 687 s.

Take `COC(=O)c1[nH]c(C)c(C(=O)C(C)N(CC(C)C)C(=O)c2ccc(OC)cc2)c1C` (stereo not given): the RP-LC retention time turned out to be 859 s.

Compound `Cc1ccc2nc(-c3cccnc3)cc(C(=O)Nc3nc(-c4ccccc4)c(C)s3)c2c1` returned an RP-LC retention time of 1070 s.

The compound `COc1ccc(-n2c(=O)c(C(=O)Nc3cccc(Cl)c3)c(O)c3cccnc32)cc1` registered an RP-LC retention time of 1370 s.

`Cc1cccc2nc(-c3ccc(O)cc3)c(Nc3ccc4c(c3)OCCO4)n12` had an RP-LC retention time of 646 s.

The compound `Cc1cc(N2CCOCC2)nc(N2CCN(C(=O)c3ccc(-c4ccccc4)cc3)CC2)n1` gave an RP-LC retention time of 720 s.

With `COc1ccc(S(=O)(=O)Nc2ccc3c(c2)N(C(C)=O)CC3)c(C)c1`, the RP-LC retention time is 722 s.

As for `Cc1ccc(C(=O)N2CCC3(C2)C(=O)N(C)c2ccccc23)cc1F` (stereo not given), the RP-LC retention time came to 815 s.

In the case of `Cc1nc(-c2cccnc2)sc1C(=O)/C=C/c1ccc(Cl)cc1Cl`, the RP-LC retention time was 1150 s.

`CC(C)NC(=O)c1c2c(cn(-c3ccccc3)c1=O)C(=O)CC(C)(C)C2` gave an RP-LC retention time of 878 s.

Compound `Cn1c(C(=O)NCCC2=CCCCC2)cc2c(=O)oc3ccccc3c21` showed an RP-LC retention time of 1050 s.

`CC(=O)c1ccc(NS(=O)(=O)N2CCC(C)CC2)cc1` returned an RP-LC retention time of 780 s.

`O=C(Nc1cc(F)cc(F)c1)c1c(O)c2cccnc2n(-c2ccccc2)c1=O` registered an RP-LC retention time of 709 s.

Regarding `Cn1nc(-c2nc(-c3ccccc3)no2)c2c1CCN(C(=O)Nc1cccc(Cl)c1)C2`, the RP-LC retention time came out at 1050 s.

`COc1nccnc1N1CCC(NC(=O)c2ccc3cc[nH]c3c2)C1` (stereo not given): the RP-LC retention time was 633 s.

Consider `COCc1cc(=O)n(Cc2cccc(F)c2)c(N2CCCC2)n1`, for which the RP-LC retention time is 806 s.

Take `CC(=O)Nc1ccc2c(c1)N(C(=O)c1cccs1)CCC2`: the RP-LC retention time was found to be 695 s.

Consider `CCc1ccc2c(c1)cc(S(=O)(=O)c1ccccc1)c(=O)n2CC(=O)NCCCOC`, for which the RP-LC retention time is 808 s.

Regarding `O=c1c2ccccc2ncn1-c1ccc(Cl)cc1`, the RP-LC retention time came to 870 s.

`COCc1cnc2c(c1SCc1ccccc1F)c(=O)n(C)c(=O)n2C` yielded an RP-LC retention time of 899 s.

Take `O=C(O)c1nnn(-c2ccc3c(c2)CCC3)c1-c1cccnc1`: the RP-LC retention time stood at 711 s.

The compound `CC1CCCCC1NC(=O)c1sc2ncccc2c1-n1cccc1` (stereo not given) returned an RP-LC retention time of 1260 s.

Regarding `CCc1ccc2c(c1)cc(S(=O)(=O)c1ccccc1)c(=O)n2CC(=O)NC(C)CC` (stereo not given), the RP-LC retention time came out at 945 s.

`O=C(Nc1ccc(-n2cnnn2)cc1)c1ccc(N2CCCC2)nn1` displayed an RP-LC retention time of 620 s.

`CCc1nc(-c2csc(S(=O)(=O)N3CCCC(C(=O)Nc4c(C)cc(C)cc4C)C3)c2)no1` (stereo not given) registered an RP-LC retention time of 1210 s.

Turning to `Cc1cc(C2CCCN2C(=O)Cc2ccc(Cl)cc2)no1` (stereo not given), the RP-LC retention time came to 824 s.

Take `CCCC(NC(=O)c1cccc(N(C)C)c1)C(=O)Nc1nc2ccccc2[nH]1` (stereo not given): the RP-LC retention time worked out at 667 s.

`CCCNC(=O)c1cc2c(-c3cccs3)nn(-c3ccccc3)c2n1CC` came in with an RP-LC retention time of 1100 s.

On to `Cc1ccc(-c2[nH]ncc2CN2C[C@@H]3CCN(S(C)(=O)=O)C[C@]3(CF)C2)cc1C`, for which the RP-LC retention time was determined as 617 s.

`Cc1cccc(NC(=O)Cn2c(C)nc3c(sc4nc(-c5ccccc5)ccc43)c2=O)c1` had an RP-LC retention time of 880 s.

For the compound `COc1ccc(CC(=O)N2CCn3cnnc3C2)cc1Cl`, the RP-LC retention time came out at 621 s.

`CCN1CCn2cc(S(=O)(=O)Nc3ccccc3OC)cc2C1=O` registered an RP-LC retention time of 690 s.

`CC(=O)Nc1ccc(S(=O)(=O)N2CCC(CC(=O)N3CCN(c4ccccn4)CC3)CC2)cc1` showed an RP-LC retention time of 581 s.

Consider `Cc1nc2ccc(C(=O)N3CCCCCC3)cc2nc1C`, for which the RP-LC retention time came to 605 s.

Regarding `Cc1ccc(NC(=O)N2CCCC2c2nc(-c3ccccc3)no2)cc1` (stereo not given), the RP-LC retention time was 964 s.

The compound `CC(CCNc1ccc(-c2nc(-c3cccc(F)c3)no2)cn1)N1CCCCCC1` (stereo not given) showed an RP-LC retention time of 782 s.

Turning to `COc1cc(C(=O)N2CCC3(CC2)N=C(c2ccc(Cl)cc2)C(=O)N3)cc(OC)c1OC`, the RP-LC retention time was determined as 812 s.

In turn, `CN(CC1CCOC1)C(=O)Nc1ccccc1Br` (stereo not given) returned an RP-LC retention time of 736 s.

`CCOc1ccccc1NC(=O)NCCCn1c(C(F)(F)F)nc2cccnc21` gave an RP-LC retention time of 856 s.

`CCSc1ccccc1C(=O)Nc1nnc(Cc2cccs2)o1` had an RP-LC retention time of 764 s.

Regarding `O=C(Cn1c(=O)cnc2cc(C(=O)NC3CC3)ccc21)Nc1ccccc1C(F)(F)F`, the RP-LC retention time turned out to be 646 s.

As for `CCc1ccccc1NC(=O)C1CC(=O)N(c2ccc3oc(C)nc3c2)C1` (stereo not given), the RP-LC retention time stood at 723 s.

Compound `O=C(CCc1nc(C2=CCN(Cc3ccc(Cl)cc3)CC2)no1)NCc1cccs1` returned an RP-LC retention time of 688 s.

Regarding `Cc1ccc(-c2nc3ncccn3c2Nc2ccc(C)c(C)c2)cc1`, the RP-LC retention time was 848 s.

In turn, `O=C(C1CCCO1)N1CCC(OCc2nc(-c3ccccc3)no2)CC1` (stereo not given) registered an RP-LC retention time of 778 s.

`CCC(=O)N1CCc2cc(-c3ccc(C(=O)N4CCN(c5ccccn5)CC4)cc3)ccc21` yielded an RP-LC retention time of 653 s.

`Cc1ccc(NC(=O)Cn2nc3nc(N4CCCC(C)C4)ccn3c2=O)c(C)c1` (stereo not given) came in with an RP-LC retention time of 808 s.

Consider `COc1ccc(NC(=O)c2[nH]c3cc(C)sc3c2CN2CCCC2)c(C)c1`, for which the RP-LC retention time was determined as 708 s.

As to `CCN1CCCC1CNC(=O)CCc1nc(-c2ccc(N3CCCC3)cc2)no1` (stereo not given), the RP-LC retention time stood at 685 s.

The compound `Cc1nc2cc(-c3noc(-c4cncc(Br)c4)n3)ccc2o1` had an RP-LC retention time of 1060 s.

`COc1cccc(-c2noc(Cn3ccn(Cc4ccc(Cl)cc4)c(=O)c3=O)n2)c1` showed an RP-LC retention time of 895 s.

In turn, `COCCNC(=O)c1cc2c(s1)CCN(C(C)=O)C2` had an RP-LC retention time of 588 s.

`Cc1ccn2cc(-c3ccc(NC(=O)Nc4ccc(Cl)cc4)cc3)nc2n1` gave an RP-LC retention time of 711 s.

`CCn1c(=O)c(N2CCN(C(=O)Nc3ccc(Br)cc3)CC2)nc2cccnc21` showed an RP-LC retention time of 1030 s.

For the compound `Cc1cc(C)cc(NC(=O)NCCn2nnc3cc(C(=O)N4CCCC4)ccc32)c1`, the RP-LC retention time came to 702 s.

As to `COc1cccc(-c2nc(Cn3ccn4nc(-c5ccccc5)cc4c3=O)c(C)o2)c1OC`, the RP-LC retention time came to 1020 s.

As to `Cc1cc(-c2nnc(-c3ccccc3)o2)c(C)n1CC(=O)Nc1cc(F)ccc1F`, the RP-LC retention time is 994 s.

In the case of `CCn1nc(C)c2c(-c3ccccc3)cc(OC(C)C(=O)NCc3ccco3)nc21` (stereo not given), the RP-LC retention time is 782 s.

Take `COc1ccccc1C(=O)N1CCc2c(c(-c3nnc(-c4ccccc4Cl)o3)nn2C)C1`: the RP-LC retention time stood at 806 s.

For the compound `CCN1C(=O)c2cc(C(=O)Nc3ccc(C)cc3C)nn2CC1(C)C(=O)NC1CCCC1` (stereo not given), the RP-LC retention time was found to be 800 s.

Take `COCCC1CCN(C(=O)c2cc(-c3ccccc3)n[nH]2)CC1`: the RP-LC retention time amounted to 758 s.

Compound `Clc1ccc(Nc2c(-c3ccc(Cl)cc3)nc3cnccn23)cc1` displayed an RP-LC retention time of 1040 s.

Turning to `Cc1ccc(NS(=O)(=O)c2cc3n(c2)CCN(C(C)C)C3=O)c(F)c1`, the RP-LC retention time is 765 s.
